# Source: patent US20240408170A1, “COMPOSITION FOR DECOMPOSITION OF TRYPSIN OR TMPRSS2” (Riken, priority 2021, published 2024)
# How the values were obtained:
# recombinant mouse PRSS2 [1] = biological target: T1, recombinant mouse PRSS2 (Mus musculus, UniProt P07146); assay: Binding of Alexa Fluor 488-labeled rmPRSS2 to the surface of bacteria (confocal microscope)
# T1 construct: purchased Sino Biological, Inc. 50383-M08H
# T1 sequence (P07146 24-246): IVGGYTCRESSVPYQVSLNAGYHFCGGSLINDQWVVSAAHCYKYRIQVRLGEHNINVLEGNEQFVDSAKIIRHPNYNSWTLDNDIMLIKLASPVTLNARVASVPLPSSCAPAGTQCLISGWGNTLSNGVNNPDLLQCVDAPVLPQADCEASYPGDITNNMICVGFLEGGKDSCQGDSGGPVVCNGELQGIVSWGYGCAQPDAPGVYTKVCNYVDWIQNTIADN
# Description: Recombinant mouse PRSS2 was labeled with Alexa Fluor™ 488 using an Alexa Fluor™ 488 Antibody Labeling Kit (Δ20181, Thermo Fisher Scientific K.K.), and was pretreated with an AEBSF inhibitor (150 μg/mL rmPRSS2 with 20 mM AEBSF).
# Mouse PRSS2 labeled with Alexa Fluor™ 488 was incubated in an anaerobic chamber for 20 minutes with bacteria cultured at a final concentration of 5 μg/mL. The mixture was centrifuged, washed once with PBS, and then resuspended in PBS. A Leica TCS SP8 confocal microscope was used for capturing a confocal image.
# trypsin = biological target: T2, trypsin (Mus musculus, UniProt P07146); assay: Substrate specificity: ex vivo incubation of GF mouse cecal contents with P. clara, peptidome analysis by LC-MS; type: biochemical; conditions: 7614 peptides derived from 276 proteins, cecal contents of GF mice
# T2 construct: the anionic trypsin protease was abundantly present in the cecal contents and the faeces; from tissue; host or cells: faeces and cecal contents of germ-free / gnotobiotic mice
# T2 sequence (P07146 24-246): T1 sequence (P07146 24-246)
# Description: An acetonitrile (ACN) containing 0.1% trifluoroacetic acid (TFA) was added to the cecal contents and dried with a centrifugal evaporator. Acetone was added to the dried sample, and a low-molecular-weight compound that was soluble in lipids was extracted with a water bath type sonicator. Thereafter, centrifugation was performed at 15,000×g for 15 minutes at 4° C.
# After removing the supernatant, 70% ACN-HCl was added to the precipitate, and the peptides were redissolved in a water bath type sonicator. Thereafter, centrifugation was performed at 15,000×g for 15 minutes at 4° C. Subsequently, the supernatant was transferred to a new tube and dried with a centrifugal evaporator. Subsequently, the dried sample was redissolved in 100 mM Tris-HCl containing a protease inhibitor, and then treated with 10 mM dithiothreitol at 50° C. for 30 minutes. Thereafter, alkylation was carried out with 30 mM iodoacetamide for 30 minutes at room temperature in a dark place. Thereafter, acidification was carried out with 0.5% trifluoroacetic acid (final concentration). The acidified sample was desalted with MonoSpin C18 (GL Sciences Inc.). […]
# The peptides eluted from the column were analyzed by DDA-MS using Q Exactive HF-X (Thermo Fisher Scientific K.K.). […]
# recombinant human PRSS2 = biological target: T3, recombinant human PRSS2 (Homo sapiens, UniProt P07478); assay: Human trypsin decomposition in vitro by P. clara (western blot); type: biochemical
# T3 construct: purchased LS-G20167
# T3 sequence (P07478 24-247): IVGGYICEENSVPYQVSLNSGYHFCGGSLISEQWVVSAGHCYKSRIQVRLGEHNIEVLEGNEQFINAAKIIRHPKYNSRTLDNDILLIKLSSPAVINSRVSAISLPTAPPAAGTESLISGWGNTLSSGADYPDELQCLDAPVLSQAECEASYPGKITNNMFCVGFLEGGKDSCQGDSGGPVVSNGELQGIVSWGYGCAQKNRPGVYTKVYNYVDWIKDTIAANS
# Description: (§1) Mouse faecal samples were suspended and diluted 50-fold with phosphate buffered saline (PBS) to which a protease inhibitor cocktail (Roche) was added. Subsequently, the suspended sample was centrifuged at 15,000×g for 10 minutes at 4° C., and the supernatant was subjected to western blot. Mouse pancreatic tissue was rapidly frozen in liquid nitrogen. Proteins were extracted by TRIzol Reagent (Thermo Fisher Scientific K.K.), and the final protein concentration was adjusted to 4 μg/μL. For SDS-PAGE and blotting, Novex (registered trademark) NuPAGE (registered trademark) SDS-PAGE Gel system (Thermo Fisher Scientific K.K.) and iBlot™ 2 Dry Blotting System (Thermo Fisher Scientific K.K.) were used according to the manufacturer's instructions.
# (§2) The bacteria cultured overnight were incubated with recombinant mouse trypsin (final concentration: 1 μg/mL) for 1 hour or with human trypsin (final concentration: 20 μg/mL) for 4 hours. Recombinant trypsin isoforms used were as follows: recombinant mouse PRSS2 (50383-M08H, Sino Biological, Inc.), recombinant human PRSS1 (LS-G135640), recombinant human PRSS2 (LS-G20167), and recombinant human PRSS3 (His-tag) (NBP2-52220).
# recombinant human PRSS1 = biological target: T4, recombinant human PRSS1 (Homo sapiens, UniProt P07477); assay: as above; type: biochemical
# T4 construct: purchased LS-G135640
# Description: as §1, §2
# recombinant mouse PRSS2 [2] = biological target: T1, recombinant mouse PRSS2; assay: Trypsin decomposition in vitro by bacteria (western blot); type: biochemical
# Description: as §1, §2
# In some experiments, recombinant mouse PRSS2 was first treated with one of the following trypsin inhibitors for 30 minutes before incubation with a P. clara culture solution. AEBSF (Sigma-Aldrich, final concentration: 2 mM), Leupeptin (Sigma-Aldrich, final concentration: 100 μM), and TLCK (Abcam plc., final concentration: 100 μM).
# In some experiments, P. clara was cultured overnight in the presence of Tunicamycin (Sigma-Aldrich, final concentration: 10 μg/mL), 2-Fluoro-L-fucose (Cayman Chemical Company, final concentration: 250 μM), or the corresponding DMSO control, before incubation with recombinant mouse PRSS2.
# In the experiment of evaluating the effect of Ca^2+, P. clara was cultured in a low Ca^2+ mGAM medium supplemented with or without 1 mM of Ca^2+, before incubation with recombinant mouse PRSS2. In the experiment in which the supernatant of P. clara was used, P. clara cultured overnight was filtered through a sterilization filter unit formed using a PVDF film having a pore size of 0.22 μm.
# FITC-casein substrate = assay: Protease activity assay (cleavage of FITC-labeled casein); type: biochemical
# Description: The protease activity of the P. clara culture solution, the P. clara culture solution supernatant, the recombinant 00502 protein, and the recombinant 005009 protein were measured using Pierce™ Fluorescent Protease Assay Kit (#23266, Thermo Fisher Scientific K.K.) according to the manufacturer's protocol.
# Using PerkinElmer 2030 Multilabel Reader equipped with an excitation filter and a fluorescence filter of fluorescein (485/538 nm), an increase in total fluorescence due to digestion of the FITC-casein substrate to smaller fluorescein-labeled fragments was detected. The protease activity was measured as a change in relative fluorescence units (RFUs).
substance,measurement,setting,value
Paraprevotella clara [P. clara (strain ID: 1C4)],binding of rmPRSS2 to the surface of bacteria,recombinant mouse PRSS2 [1],accumulate on the surface
same,substrate specificity: proteins with increase in peptide concentration over time,trypsin,trypsin was only one protein that exhibited a pattern of a clear increase in peptide concentration over time
same,decomposition of human trypsin PRSS2 (western blot),recombinant human PRSS2,can promote the reduction
same,decomposition of human trypsin PRSS1 (western blot),recombinant human PRSS1,can promote the reduction
same,reaction rate of trypsin decomposition by P. clara,recombinant mouse PRSS2 [2],gradually occurs stoichiometrically
same,dependence of P. clara-mediated trypsin decomposition on divalent cations,recombinant mouse PRSS2 [2]; Ca2+,occurred only in the presence of a sufficient amount of divalent cations
same,decomposition of rmPRSS2 (western blot),recombinant mouse PRSS2 [2]; bacteria or culture supernatant incubated with recombinant mouse trypsin,reduced trypsin
same,protease activity (change in relative fluorescence units),FITC-casein substrate,no proteolytic activity was detected
